Laboratory results as given in US10934258B2, “Materials for use in an aqueous organic redox flow battery” (Utah State University, priority 2016, dated 2021).

Tests used:
[1] = RDE linear sweep voltammetry with Levich and Tafel analysis; assay type: physicochemical; settings: 1.0 mM in 0.5 M NaCl
Procedure: Electrochemical RDE studies: All linear sweep voltammetry (LSV) studies were conducted using a Gamry 1000E potentiostat in a three-electrode configuration, a glassy carbon disk working electrode (5 mm Teflon encased glassy carbon disk, Pine Research Instrumentation) along with a glassy carbon counter electrode and a Ag/AgCl reference electrode same as used in CV studies. Before data collection, the disk electrode was prepared using the procedure described in the CV studies. The electrode was then rotated at from 300 to 2400 rpm with an increment of 300 rpm, which was controlled by a Pine MSR rotator system. LSV scans were recorded at a rate of 5 mV/s from 0.3 V to 0.8 V vs NHE. At each rotation rate, the LSV were recorded 3 times to ensure repeatability. The limiting currents (i.e. the mass transport-limited current intensity) were taken at 0.7 V vs NHE for FcNCl and plotted over the square root of the rotation rate (rad/s). The data were fitted to yield a straight Levich plot, with the slope defined by the Levich equation (equation 1 below), where n=1 for one electron process, Faraday's constant F=96485 C/mol, electrode area A=0.1935 cm^2, FcNCl concentration Co=1.0 mM, D is diffusion coefficient, kinematic viscosity n=0.009 cm^2/s for 0.5 M NaCl solution. The calculations yielded the diffusion coefficients of FcNCl as 3.25×10^−6 cm^2/s. A plot of overpotential versus log10(iK) was constructed for the LSV data collected at […] for FcNCl where iK is the kinetic current for the oxidation of FcNCl. […] Levich plot slope=0.620nFACOD^2/3v^−1/6 (equation 1) i0=FACOk0 (equation 2)
Electrochemical RDE studies: Linear sweep voltammetry (LSV) experiments were conducted using a Gamry 1000E potentiostat with a three-electrode system. A 5 mm rotating glassy carbon disk encased in Teflon served as the working electrode. A glassy carbon rod was used as the counter electrode. A Ag/AgCl wire served as the reference electrode. The working electrode was cleaned using the same method as in the CV experiments. During the experiments, the working electrode rotated from 300 rpm to 2400 rpm at increments of 300 rpm. Three scans at each rotation rate were collected to ensure accuracy. (NPr)2V: LSV scans were conducted at a rate of 5 mV/s from 0.1 V to −1.2 V versus NHE. The limiting currents (mass transport-limited current intensity) at each rotation rate were recorded at −0.57 V and −0.95 V versus NHE. […] The slopes of these fitted lines are defined by the Levich equation, Levich Plot Slope=0.620nFAC0D^2/3v^−1/6 (equation 1)
[…] Plots of overpotential versus log10(ik) were constructed from the 2400 rpm LSV, where ik is the kinetic current of each reduction of (NPr)2V. The x-intercept of the fitted Tafel plot represents the log of the exchange current i0 that is defined by: i0=FAC0k^0 (equation 2)
where F, A, and C0 are defined above, and k^0 represents the electron transfer rate constant.
(NPr)(SPr)V, (Me)(NPr)V, (SPr)2V, and [FcN^Et]Br: LSV scans were collected and analyzed using the same techniques described for (NPr)2V.

[2] = Cyclic and square wave voltammetry (redox potentials); assay type: physicochemical; settings: 4 mM in 0.5 M NaCl
Procedure: Electrochemical Cyclic voltammetry (CV) studies. All electrochemical CV experiments were carried out in 0.5 M NaCl electrolyte solutions. Cyclic voltammetry experiments were performed with a Gamry 1000E potentiostat. All potentials were referenced to NHE according to the known MV^2+/1+ redox couple (−0.45 V vs NHE). The working electrode (1 mm PEEK-encased glassy carbon, Cypress Systems EE040) was polished using Al2O3(BAS CF-1050, dried at 150° C. under vacuum) suspended in deionized H2O, then rinsed with deionized H2O and dried with an air flow. The reference electrode was a silver wire coated with a layer of AgCl and suspended in a solution of 0.5 M NaCl electrolyte. A glassy carbon rod (Structure Probe, Inc.) was used as the counter electrode.
Cyclic and square wave voltammetry studies: All experiments were conducted in an […], 0.5 M NaCl aqueous solution, and performed with a Gamry 1000E potentiostat. A 1 mm PEEK encased glassy carbon disk was used as the working electrode. The working electrode was polished with 0.05 micron Al2O3 powder and rinsed with deionized H2O. A glassy carbon rod was used as the counter electrode. A silver wire coated with AgCl and suspended in 3.0 M KCl electrolyte was used as the reference electrode.
The redox potentials were calculated directly versus MV which was derived from the Born-Haber method. This calculation predicts the redox potential of the viologen by comparing it to the experimentally determined potentials for MV. Square wave voltammetry was employed to most accurately measure E1/2 for the two reductions of viologen compounds (FIG. 42). The calculation of the theoretical redox potential vs MV can be simplified as shown below: […]

[3] = Solubility by preparing a super-saturated solution
Procedure: Chemicals and Materials. All chemicals were purchased from Aldrich or TCI, stored in an Argon glovebox, and used directly. Solubility of substituted ferrocene compounds was measured in water by preparing a super-saturated solution in a volumetric cylinder. Deionized water was purged overnight using N2 before use. All experimental operations were conducted under a N2 atmosphere. Conductivity of the electrolyte solutions was measured using a Mettler Toledo conductivity meter at R.T. NMR studies were conducted using a Bruker 500 MHz NMR spectrometer. UV-Vis was collected using an Ocean Optic spectrometer. Elemental analysis was done at Atlantic Microlab.
Calculation of theoretical energy density: The theoretical energy density of the FcNCl/MV AORFB was calculated using equation 3 below, where n is the number of electrons involved into the cell reaction, C is the concentration of active materials, F is Faraday constant, 26.8 Ah/mol, V is the cell voltage, and 2 represents a factor considering both volumes of anolyte and catholyte. Solubility of FcNCl and MV was measured in water respectively by preparing a super-saturated solution. Similar solubility tests in water were applied for ferrocenecarboxylic acid, 1-1′-ferrocenedicarboxilic acid, ferrocenecarboxylic acid, and 1,1′-ferrocenedimethanol. Energy density (Wh/L)=nCFV/2 (equation 3)

[4] = known value, potential reference; cited from earlier work

SMILES: C[n+]1ccc(-c2cc[n+](C)cc2)cc1 [MV, methyl viologen, reference compound]
- diffusion constant, D, first reduction ([1]; Levich): 2.57 × 10^−5 cm^2/s
- electron transfer rate constant, k^0, first reduction ([1]; Tafel): 0.00028 cm/s
- Exp. E1/2, first reduction ([2]; first redox couple): −0.45 V vs. NHE
- Exp. E1/2, second reduction ([2]; second redox couple): −0.76 V vs. NHE
- solubility in 2.0 M NaCl solution ([3]; 2.0 M NaCl solution): above 2.0 M
- solubility in water, [C] ([3]; in water): 2500 mM
- MV^2+/1+ redox couple used as reference [4]: −0.45 V vs NHE
